Reference: patent publication EP0619818B1, “IMIDAZOYLALKYL SUBSTITUTED WITH A SIX MEMBERED NITROGEN CONTAINING HETEROCYCLIC RING” (SCHERING CORPORATION, priority 1991, dated 1993)

Biological target: H3 receptors (Cavia porcellus, UniProt Q9JI35)
Experiment: H3 Receptor Binding Assay
Details: guinea pig brain membranes; 3 nM [3H]R-α-methylhistamine or [3H]-N-methylhistamine; 30° for 30 min; 50 mM Tris, pH 7.5

Chain of H3 receptors (Q9JI35 whole entry): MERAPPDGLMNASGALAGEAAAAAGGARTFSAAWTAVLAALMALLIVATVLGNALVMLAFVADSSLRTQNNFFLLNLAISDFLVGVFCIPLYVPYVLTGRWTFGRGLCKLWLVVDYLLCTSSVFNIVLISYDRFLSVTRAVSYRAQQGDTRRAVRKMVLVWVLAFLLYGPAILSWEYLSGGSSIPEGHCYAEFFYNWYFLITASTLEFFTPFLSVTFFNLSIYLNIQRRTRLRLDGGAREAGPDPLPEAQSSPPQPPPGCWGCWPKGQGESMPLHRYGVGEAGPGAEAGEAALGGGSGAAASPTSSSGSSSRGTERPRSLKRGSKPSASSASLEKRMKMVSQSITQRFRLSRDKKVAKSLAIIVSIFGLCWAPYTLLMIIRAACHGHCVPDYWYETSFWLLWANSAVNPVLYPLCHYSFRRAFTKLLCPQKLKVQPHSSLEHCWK

Ki [µM]	SMILES
0.19	CN1CCCC(Cc2c[nH]cn2)C1 (centres unmarked) [Compound 6.2]
0.0003	c1nc(CC2CCNCC2)c[nH]1 [Compound 7.3]
